According to PubChem BioAssay AID1745844 (Carcinogenic Potency Database (CPDB), 2022):
Where “and” joins values, the source holds several entries; their conditions need not be identical. Identical values can stand only once. Calls of active or inactive are those of the source. No rule for the calls is given here.

Test system: rodent lifetime carcinogenesis bioassay, tumor incidence TD50
Assay: carcinogenic potency in animals, long-term in vivo studies, CPDB compilation (AID 1745844)
[1] = rat, strain Sprague-Dawley, females, in feed, site: mammary tissue, wider than the gland, lesion: malignant tumor, dosed 104 weeks, study length 104 weeks

CN(N=O)C(=O)c1c(N(C)N=O)ncn1C
TD50 (rat, strain BD IX, both sexes, by gavage, site: forestomach, lesion: squamous-cell carcinoma, dosed 41 weeks, study length 52 weeks): 0.183 mg/kg/day

CC(C)C(C(=O)OC(C#N)c1cccc(Oc2ccccc2)c1)c1ccc(Cl)cc1 (stereo unspecified)
TD50 (mouse, strain B6C3F1, females, in feed, site: any site (literature study), lesion: one or several types, types not named, dosed 104 weeks, study length 104 weeks): 173 mg/kg/day (inactive) | carcinogen call (mouse, strain B6C3F1, females, in feed, site: liver, lesion: hepatocellular adenoma, dosed 104 weeks, study length 104 weeks): negative (inactive) | carcinogen call (mouse, strain B6C3F1, females, in feed, site: liver, lesion: hepatocellular carcinoma, dosed 104 weeks, study length 104 weeks): negative (inactive) | carcinogen call (mouse, strain B6C3F1, females, in feed, site: lung, lesion: bronchiolar adenoma, dosed 104 weeks, study length 104 weeks): negative (inactive) | carcinogen call (mouse, strain B6C3F1, females, in feed, site: lung, lesion: bronchogenic carcinoma, dosed 104 weeks, study length 104 weeks): negative (inactive) | TD50 (mouse, strain B6C3F1, males, in feed, site: any site (literature study), lesion: one or several types, types not named, dosed 104 weeks, study length 104 weeks): 251 mg/kg/day (inactive) | carcinogen call (mouse, strain B6C3F1, males, in feed, site: liver, lesion: hepatocellular adenoma, dosed 104 weeks, study length 104 weeks): negative (inactive) | carcinogen call (mouse, strain B6C3F1, males, in feed, site: liver, lesion: hepatocellular carcinoma, dosed 104 weeks, study length 104 weeks): negative (inactive) | carcinogen call (mouse, strain B6C3F1, males, in feed, site: lung, lesion: bronchiolar adenoma, dosed 104 weeks, study length 104 weeks): negative (inactive) | carcinogen call (mouse, strain B6C3F1, males, in feed, site: lung, lesion: bronchogenic carcinoma, dosed 104 weeks, study length 104 weeks): negative (inactive) | carcinogen call (mouse, strain B6C3F1, males, in feed, site: skin, lesion: fibrosarcoma, dosed 104 weeks, study length 104 weeks): negative (inactive) | TD50 (mouse, strain C57BL/6, females, by gavage, site: all sites, lesion: lymphoma, dosed 104 weeks, study length 114 weeks): 384 mg/kg/day (inactive) | TD50 (mouse, strain C57BL/6, females, by gavage, site: any site (literature study), lesion: one or several types, types not named, dosed 104 weeks, study length 114 weeks): 435 mg/kg/day (inactive) | carcinogen call (mouse, strain C57BL/6, females, by gavage, site: liver, lesion: liver-cell tumor, dosed 104 weeks, study length 114 weeks): negative (inactive) | carcinogen call (mouse, strain C57BL/6, females, by gavage, site: lung, lesion: adenoma, dosed 104 weeks, study length 114 weeks): negative (inactive) | TD50 (mouse, strain C57BL/6, males, by gavage, site: all sites, lesion: lymphoma, dosed 104 weeks, study length 114 weeks): 659 mg/kg/day (inactive) | carcinogen call (mouse, strain C57BL/6, males, by gavage, site: any site (literature study), lesion: one or several types, types not named, dosed 104 weeks, study length 114 weeks): negative (inactive) | TD50 (mouse, strain C57BL/6, males, by gavage, site: liver, lesion: liver-cell tumor, dosed 104 weeks, study length 114 weeks): 328 mg/kg/day (inactive) | carcinogen call (mouse, strain C57BL/6, males, by gavage, site: lung, lesion: adenoma, dosed 104 weeks, study length 114 weeks): negative (inactive) | carcinogen call (rat, strain Sprague-Dawley, females, in feed, site: liver, lesion: round-cell sarcoma, dosed 104 weeks, study length 104 weeks): negative (inactive) | TD50 (rat, strain Sprague-Dawley, females, in feed, site: mammary gland, lesion: fibroadenoma, dosed 104 weeks, study length 104 weeks): 58 mg/kg/day (inactive) | TD50 (rat, strain Sprague-Dawley, females, in feed, site: mammary gland, lesion: fibroma, dosed 104 weeks, study length 104 weeks): 2.55 mg/kg/day (inactive) | TD50 (rat, strain Sprague-Dawley, females, in feed, site: mammary tissue, wider than the gland, lesion: benign tumor, dosed 104 weeks, study length 104 weeks): 43.7 mg/kg/day (inactive) and 247 mg/kg/day (inactive) | TD50 [1]: 150 mg/kg/day (inactive) | carcinogen call [1]: negative (inactive) | TD50 (rat, strain Sprague-Dawley, males, in feed, site: subcutaneous tissue, lesion: fibrosarcoma, dosed 104 weeks, study length 104 weeks): 5.04 mg/kg/day (inactive) | TD50 (rat, strain Sprague-Dawley, males, in feed, site: subcutaneous tissue, lesion: spindle-cell sarcoma, dosed 104 weeks, study length 104 weeks): 266 mg/kg/day (inactive)

CN(C)CCC(c1ccc(Cl)cc1)c1ccccn1 (stereo unspecified)
carcinogen call (mouse, strain B6C3F1, females, by gavage, site: any site (literature study), lesion: several types, types named in the paper, dosed 103 weeks, study length 104 weeks): negative (inactive) | TD50 (mouse, strain B6C3F1, males, by gavage, site: adrenal capsule, lesion: adenoma, NOS, dosed 103 weeks, study length 104 weeks): 84 mg/kg/day (inactive) | TD50 (mouse, strain B6C3F1, males, by gavage, site: any site (literature study), lesion: several types, types named in the paper, dosed 103 weeks, study length 104 weeks): 54.1 mg/kg/day | TD50 (mouse, strain B6C3F1, males, by gavage, site: liver, lesion: hepatocellular adenoma + hepatocellular carcinoma + neoplastic nodule, dosed 103 weeks, study length 104 weeks): 101 mg/kg/day | TD50 (mouse, strain B6C3F1, males, by gavage, site: subcutaneous tissue, lesion: fibrosarcoma + fibroma + neurofibrosarcoma + sarcoma, NOS, dosed 103 weeks, study length 104 weeks): 94.7 mg/kg/day | TD50 (mouse, strain B6C3F1, males, by gavage, site: subcutaneous tissue, lesion: fibrosarcoma + neurofibrosarcoma + sarcoma, NOS, dosed 103 weeks, study length 104 weeks): 95.2 mg/kg/day | TD50 (mouse, strain B6C3F1, males, by gavage, site: subcutaneous tissue, lesion: fibrosarcoma, dosed 103 weeks, study length 104 weeks): 140 mg/kg/day | carcinogen call (rat, strain Fischer 344, females, by gavage, site: any site (literature study), lesion: several types, types named in the paper, dosed 103 weeks, study length 104 weeks): negative (inactive) | TD50 (rat, strain Fischer 344, females, by gavage, site: liver, lesion: hepatocellular adenoma + hepatocellular carcinoma + neoplastic nodule, dosed 103 weeks, study length 104 weeks): 3180 mg/kg/day | carcinogen call (rat, strain Fischer 344, females, in feed, site: liver, lesion: neoplastic nodule, dosed 106 weeks, study length 128 weeks): negative (inactive) | carcinogen call (rat, strain Fischer 344, males, by gavage, site: any site (literature study), lesion: several types, types named in the paper, dosed 103 weeks, study length 104 weeks): negative (inactive) | TD50 (rat, strain Fischer 344, males, by gavage, site: liver, lesion: hepatocellular adenoma + hepatocellular carcinoma + neoplastic nodule, dosed 103 weeks, study length 104 weeks): 208 mg/kg/day | carcinogen call (rat, strain Fischer 344, males, in feed, site: liver, lesion: neoplastic nodule, dosed 106 weeks, study length 128 weeks): negative (inactive)

O=c1[nH]nc(-c2ccc([N+](=O)[O-])o2)o1
TD50 (rat, strain Sprague-Dawley, females, in feed, site: any site (literature study), lesion: several types, types named in the paper, dosed 46 weeks, study length 66 weeks): 8.61 mg/kg/day | TD50 (rat, strain Sprague-Dawley, females, in feed, site: mammary gland, lesion: adenocarcinoma, dosed 46 weeks, study length 66 weeks): 31.2 mg/kg/day | TD50 (rat, strain Sprague-Dawley, females, in feed, site: mammary gland, lesion: several types, types named in the paper, dosed 46 weeks, study length 66 weeks): 8.61 mg/kg/day

Cn1cnc([N+](=O)[O-])c1Sc1ncnc2nc[nH]c12
TD50 (monkey, strain Rhesus [Macaca mulatta], both sexes, in feed, site: any site (literature study), lesion: benign tumor, dosed 774 weeks, study length 851 weeks): 4.89 mg/kg/day | TD50 (monkey, strain Rhesus [Macaca mulatta], both sexes, in feed, site: any site (literature study), lesion: several types, types named in the paper, dosed 774 weeks, study length 851 weeks): 3.68 mg/kg/day | TD50 (monkey, strain Rhesus [Macaca mulatta], both sexes, in feed, site: leptomeninges, lesion: lymphocytic lymphoma, dosed 774 weeks, study length 851 weeks): 6.79 mg/kg/day | TD50 (monkey, strain Rhesus [Macaca mulatta], both sexes, in feed, site: salivary gland, lesion: adenoma, dosed 774 weeks, study length 851 weeks): 2.18 mg/kg/day | TD50 (monkey, strain Rhesus [Macaca mulatta], both sexes, in feed, site: uterus, lesion: leiomyoma, dosed 774 weeks, study length 851 weeks): 2.74 mg/kg/day | TD50 (mouse, strain B6C3F1, females, in feed, site: all sites, lesion: systemic and localized lymphoma, dosed 94 weeks, study length 94 weeks): 7.59 mg/kg/day | TD50 (mouse, strain B6C3F1, females, in feed, site: all sites, lesion: systemic and localized lymphoma, dosed 100 weeks, study length 100 weeks): 43.8 mg/kg/day | TD50 (mouse, strain B6C3F1, females, in feed, site: liver, lesion: hepatocellular adenoma, dosed 100 weeks, study length 100 weeks): 67.5 mg/kg/day | TD50 (mouse, strain B6C3F1, females, in feed, site: lung, lesion: one or several types, types not named, dosed 94 weeks, study length 94 weeks): 4.89 mg/kg/day | TD50 (mouse, strain B6C3F1, females, in feed, site: uterus, lesion: hemangioendothelioma, dosed 100 weeks, study length 100 weeks): 8.92 mg/kg/day | TD50 (mouse, strain B6C3F1, males, in feed, site: all sites, lesion: systemic and localized lymphoma, dosed 100 weeks, study length 100 weeks): 9.66 mg/kg/day | TD50 (mouse, strain B6C3F1, males, in feed, site: liver, lesion: hepatocellular carcinoma, dosed 100 weeks, study length 100 weeks): 55.9 mg/kg/day | TD50 (mouse, strain B6C3F1, males, in feed, site: lung, lesion: carcinoma, dosed 100 weeks, study length 100 weeks): 55.9 mg/kg/day | TD50 (rat, strain Fischer 344, females, in feed, site: ear duct, lesion: squamous-cell carcinoma, dosed 52 weeks, study length 52 weeks): 10.1 mg/kg/day | carcinogen call (rat, strain Fischer 344, females, in feed, site: liver, lesion: one or several types, types not named, dosed 52 weeks, study length 52 weeks): negative (inactive)

CN(C)C(=O)Nc1ccc(Cl)c(Cl)c1
carcinogen call (mouse, strain B6AKF1, females, oral dosing, site: any site (literature study), lesion: several types, types named in the paper, dosed 76 weeks, study length 76 weeks): negative (inactive) | carcinogen call (mouse, strain B6AKF1, females, oral dosing, site: liver, lesion: hepatoma, dosed 76 weeks, study length 76 weeks): negative (inactive) | carcinogen call (mouse, strain B6AKF1, females, oral dosing, site: lung, lesion: adenoma, dosed 76 weeks, study length 76 weeks): negative (inactive) | TD50 (mouse, strain B6AKF1, males, oral dosing, site: any site (literature study), lesion: several types, types named in the paper, dosed 76 weeks, study length 76 weeks): 260 mg/kg/day (inactive) | carcinogen call (mouse, strain B6AKF1, males, oral dosing, site: liver, lesion: hepatoma, dosed 76 weeks, study length 76 weeks): negative (inactive) | TD50 (mouse, strain B6AKF1, males, oral dosing, site: lung, lesion: adenoma, dosed 76 weeks, study length 76 weeks): 437 mg/kg/day (inactive) | TD50 (mouse, strain B6C3F1, females, oral dosing, site: any site (literature study), lesion: several types, types named in the paper, dosed 76 weeks, study length 76 weeks): 388 mg/kg/day (inactive) | carcinogen call (mouse, strain B6C3F1, females, oral dosing, site: liver, lesion: hepatoma, dosed 76 weeks, study length 76 weeks): negative (inactive) | TD50 (mouse, strain B6C3F1, females, oral dosing, site: lung, lesion: adenoma, dosed 76 weeks, study length 76 weeks): 600 mg/kg/day (inactive) | TD50 (mouse, strain B6C3F1, males, oral dosing, site: any site (literature study), lesion: several types, types named in the paper, dosed 76 weeks, study length 76 weeks): 361 mg/kg/day (inactive) | TD50 (mouse, strain B6C3F1, males, oral dosing, site: liver, lesion: hepatoma, dosed 76 weeks, study length 76 weeks): 1150 mg/kg/day (inactive) | TD50 (mouse, strain B6C3F1, males, oral dosing, site: lung, lesion: adenoma, dosed 76 weeks, study length 76 weeks): 1150 mg/kg/day (inactive)

O=CNNc1nc(-c2ccco2)cs1
carcinogen call (rat, strain Sprague-Dawley, females, in feed, site: any site (literature study), lesion: several types, types named in the paper, dosed 46 weeks, study length 64 weeks): negative (inactive)

CC1CN(N=O)C(=O)O1 (stereo unspecified)
TD50 (hamster, strain Syrian Golden, females, by gavage, site: forestomach, lesion: several types, types named in the paper, dosed 28 weeks, study length 60 weeks): 0.172 mg/kg/day

CC(O)CNCC(C)O (stereo unspecified)
carcinogen call (rat, strain Wistar, males, in feed, site: liver, lesion: hepatocellular carcinoma, dosed 94 weeks, study length 94 weeks): negative (inactive) | carcinogen call (rat, strain Wistar, males, in feed, site: lung, lesion: one or several types, types not named, dosed 94 weeks, study length 94 weeks): negative (inactive) | carcinogen call (rat, strain Wistar, males, in feed, site: nasal cavity, lesion: one or several types, types not named, dosed 94 weeks, study length 94 weeks): negative (inactive)
